In brackets after ≈: the same amount, converted by molar mass. Where two headings read alike, the source gives them in different places.
Tests used:
CYP2D6 = target: T1, CYP2D6 (Homo sapiens, UniProt P10635); assay: Inhibition assay of human CYP450 enzymes, 2D6; assay type: in vitro ADME; settings: for IC50: fluorescent substrate; for no inhibition of CYP2D6 at concentrations up to: the values are: IC50
T1 construct: purchased Fisher Scientific; host or cells: insect cells (supersomes)
Experimental: (§1) The two compounds 4e and 4n were assessed for their ability to inhibit the three major human CYP450 enzymes, 3A4, 2D6 and 2C9. Assays were run in triplicate. Expressed enzymes in insect supersomes (Fisher Scientific, Waltham, MA) were used to minimize non-specific binding and membrane partitioning issues ([68]). The 3A4 assay uses testosterone as a substrate and analysis was performed by LC/MS/MS on a Waters Xevo TQ instrument as described above using positive electrospray ionization. Assay acceptance criteria was 20% for all standards and 25% for the LLOQ. The 2D6 and 2C9 assays use fluorescent substrates (3-[2-(N,N-diethylamino)ethyl]-7-methoxy-4-methylcoumarin for 2D6; 7-methoxy-4-(trifluoromethyl)coumarin for 2C9) and were analyzed on an Envision plate reader. GraphPad® Prism v 5.04 was used for nonlinear fitting of data to generate IC50 values.

NB4 leukemia cell line = assay: CellTiter-Blue cell viability assay, NB4; assay type: cell-based, human; settings: 48 h, CellTiter-Blue, 48 h, maximum tested concentration 20 µM, read-out: IC50 ± SEM, NB4
Experimental: (§2) HL60, K562, MV4-11 and NB4 were purchased from CLS Cell Line Service GmbH (Eppelheim, Germany). All cell lines were cultured in RPMI-1640 medium supplemented with 10% fetal bovine serum (FBS) (Thermo Fisher Scientific) and 0.1% ciprofloxacin (2.5mg/ml; Cipla Limited; Mumbai, India), and were maintained at 37°C in the presence of 21% O2 and 5% CO2.
(§3) Cell viability was determined using the CellTiter®-Blue Cell Viability Assay kit (Promega, Madison, WI, USA). Approximately 10^4 cells were counted and plated in a 96-well plate in the presence of test compounds ranging from 0.01 to 10 or 20 µM in triplicate and were incubated for 48 h at 37°C in a humidified incubator. After the incubation period was complete, 20 µL of CellTiter®-Blue Cell Viability Assay reagent was added to each well and incubated for additional 2 h for the development of florescence. Florescence was measured at Ex/Em 540/590 on SpectraMax® i3 Multi-Mode microplate reader (Molecular Devices, LLC; San Jose, CA, USA) and plotted against drug concentration to determine the IC50 of the test compounds. The IC50 was obtained by non-linear regression model using GraphPad Prism 6.07 (GraphPad Software, Inc, USA).

[1] = Binding to mouse plasma proteins (equilibrium dialysis); assay type: in vitro ADME; settings: 10 µM, 37°C, 22 h dialysis
Experimental: The equilibrium dialysis method for determining plasma protein binding was performed as previously described using 96-well dialyzer plates with molecular weight cutoff of 5K (Harvard Aparatus, Holliston, MA) and a dual-plate rotator set to maximum speed (Harvard Aparatus, Holliston, MA) located in a 37°C incubator with a 10% CO2-atmospheric environment. Assays were run in triplicate. The test compounds were added to CD-1 mouse plasma (Innovative Research, Novi, MI, sodium heparin added as anticoagulant; pH adjusted to 7.4 with 2N HCl on day of use) in DMSO (final DMSO concentration 0.4%) to give 10 µM final concentration. Drug/plasma mixture and buffer (Dulbecco’s phosphate-buffered saline 1X without calcium and magnesium, Mediatech, Inc., Herndon, VA) were placed in their respective sides, wells were capped, and the plate was placed in the rotator and allowed to dialyze for 22 h. Following dialysis, aliquots of buffer and plasma mixture were removed and mixed with aliquots of the opposite matrix in 96-well deep plates. Concentrations of analytes from each side of the dialysis plate were determined by LC/MS/MS on a Waters Xevo TQ instrument as described above using positive electrospray ionization. […] The fraction unbound was calculated by dividing the drug concentration in the buffer side of the dialysis plate by the drug concentration in the plasma side.

[2] = Maximum kinetic aqueous solubility; assay type: physicochemical; settings: 2% DMSO/PBS, pH 7.4, read-out: Max. aq. Sol.
Experimental: Solubility assays were performed using Millipore MultiScreen® HTS-PFC Filter Plates designed for solubility assays (EMD Millipore, Billerica, MA). Assays were run in triplicate. The 96-well plates consist of two chambers separated by a filter. Liquid handling was performed using JANUS® Verispan and MTD workstations (Perkin Elmer, Waltham, MA). 4 µL of 4e or 4n solution (10 mM in DMSO) was added to 196 µL of phosphate buffer (45 mM potassium phosphate, 45 mM sodium acetate, 45 mM ethanolamine, pH = 7.4) in the top chamber to give a final DMSO concentration of 2% and a theoretical drug concentration of 200 µM. Plates were gently shaken for 90 min and then subjected to vacuum. Insoluble drug is captured on the filter. 160 µL of the filtrate is transferred to 96-well Griener UV Star® analysis plates (Sigma–Aldrich, St. Louis, MO) containing 40 µL of acetonitrile. The test compound concentration in the filtrate is measured by UV absorbance on a Spectromax® Plus microplate reader (Molecular Devices, Sunnyvale, CA) using Softmax Pro software v.5.4.5. Absorbances at 5 wavelengths (280, 300, 320, 340, and 360 nm) were summed to generate the UV signal. Standard curves were generated by adding 4 µL of five concentrations of test compound in DMSO to 40 µL of acetonitrile in UV Star plates followed by 156 µL of the appropriate solubility medium. Analysis and statistics were performed using GraphPad® Prism v.5.04. Data were reported as the maximum concentration observed in the filtrate.

CYP3A4 = target: T2, CYP3A4 (Homo sapiens, UniProt P08684); assay: Inhibition assay of human CYP450 enzymes, 3A4; assay type: in vitro ADME; settings: for IC50: testosterone substrate; for no inhibition of CYP3A4 at concentrations up to: the values are: IC50
T2 construct: purchased Fisher Scientific; host or cells: insect cells (supersomes)
T2 sequence (P08684 whole entry): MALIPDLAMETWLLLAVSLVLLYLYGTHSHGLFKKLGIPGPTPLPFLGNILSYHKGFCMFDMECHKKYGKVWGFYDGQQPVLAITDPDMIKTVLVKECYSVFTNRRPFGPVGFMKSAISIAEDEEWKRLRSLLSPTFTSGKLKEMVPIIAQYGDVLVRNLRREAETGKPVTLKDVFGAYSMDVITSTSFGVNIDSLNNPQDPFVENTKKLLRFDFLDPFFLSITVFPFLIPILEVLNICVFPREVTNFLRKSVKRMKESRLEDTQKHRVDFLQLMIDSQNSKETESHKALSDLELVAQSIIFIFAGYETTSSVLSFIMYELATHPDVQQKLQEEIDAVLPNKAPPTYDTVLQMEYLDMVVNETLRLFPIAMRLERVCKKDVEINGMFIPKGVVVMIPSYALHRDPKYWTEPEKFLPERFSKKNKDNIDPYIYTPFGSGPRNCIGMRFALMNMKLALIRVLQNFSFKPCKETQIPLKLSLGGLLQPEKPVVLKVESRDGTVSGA
Experimental: as §1

[3] = system: MV4-11 leukemia cell line; assay: CellTiter-Blue cell viability assay, MV4-11; assay type: cell-based; settings: Homo sapiens, CellTiter-Blue, 48 h, maximum tested concentration 20 µM, read-out: IC50 ± SEM, MV4-11
Experimental: as §2, §3

[4] = phosphate buffer with 2% DMSO, aqueous buffer, kinetic from dmso stock

T1 sequence (P10635 whole entry): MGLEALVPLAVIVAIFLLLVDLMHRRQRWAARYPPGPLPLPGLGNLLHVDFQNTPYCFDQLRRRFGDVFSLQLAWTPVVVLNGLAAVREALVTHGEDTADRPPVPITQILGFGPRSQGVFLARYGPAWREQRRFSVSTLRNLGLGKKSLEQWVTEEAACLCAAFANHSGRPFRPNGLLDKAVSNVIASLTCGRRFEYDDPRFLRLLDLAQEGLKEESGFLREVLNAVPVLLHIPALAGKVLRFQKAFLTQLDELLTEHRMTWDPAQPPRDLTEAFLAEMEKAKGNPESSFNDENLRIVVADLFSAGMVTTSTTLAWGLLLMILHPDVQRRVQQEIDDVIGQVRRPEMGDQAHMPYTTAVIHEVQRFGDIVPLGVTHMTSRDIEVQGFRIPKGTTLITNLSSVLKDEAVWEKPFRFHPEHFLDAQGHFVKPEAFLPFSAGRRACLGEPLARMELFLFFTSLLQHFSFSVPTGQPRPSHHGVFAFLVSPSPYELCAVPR

With `O=C(Cc1ccc(NC(=O)c2cccc(Cl)n2)cc1)NCc1ccccc1` [Compound 4n, N-(4-(2-(benzylamino)-2-oxoethyl)phenyl)-6-chloropicolinamide] the IC50 (CYP2D6) was > 10000 nM, the no inhibition of CYP2D6 at concentrations up to (CYP2D6) was > 10 µM and the IC50 (NB4 leukemia cell line; Homo sapiens) was 1540 ± 660 nM. The “Mouse PPB (% free)” value [1] was “Unstable”, the solubility kinetic at 90 min [2, 4] was 2.6 µM (≈ 0.988 µg/mL) and the IC50 (CYP3A4) was > 10000 nM. The no inhibition of CYP3A4 at concentrations up to (CYP3A4) was > 10 µM and the IC50 [3] was 1960 ± 470 nM.
For `O=C(Cc1ccc(NC(=O)c2cccc(Cl)c2)cc1)NCc1ccccc1` [Compound 4e, N-(4-(2-(benzylamino)-2-oxoethyl)phenyl)-3-chlorobenzamide], the IC50 (CYP2D6) was > 10000 nM, the no inhibition of CYP2D6 at concentrations up to (CYP2D6) was > 10 µM and the IC50 (NB4 leukemia cell line) was 940 nM. For the same molecule, the IC50 (NB4 leukemia cell line; Homo sapiens) was 960 nM, the “Mouse PPB (% free)” value [1] was 0.8 % free and the solubility kinetic at 90 min [2] was < 2.0 µM. The solubility kinetic at 90 min [2, 4] was < 2 µM, the IC50 (CYP3A4) was > 10000 nM and the no inhibition of CYP3A4 at concentrations up to (CYP3A4) was > 10 µM. The IC50 [3] was 1900 ± 80 nM.

Reference: publication PMC9166630, “SAR Probing of KX2-391 Provided Analogues With Juxtaposed Activity Profile Against Major Oncogenic Kinases” (Frontiers in Oncology, 2022)
